pIC50, pKd: −log10 of the molar value.

For one test, the target named is T1, RARα (Homo sapiens, UniProt P10276).
T1 sequence (P10276 1-462): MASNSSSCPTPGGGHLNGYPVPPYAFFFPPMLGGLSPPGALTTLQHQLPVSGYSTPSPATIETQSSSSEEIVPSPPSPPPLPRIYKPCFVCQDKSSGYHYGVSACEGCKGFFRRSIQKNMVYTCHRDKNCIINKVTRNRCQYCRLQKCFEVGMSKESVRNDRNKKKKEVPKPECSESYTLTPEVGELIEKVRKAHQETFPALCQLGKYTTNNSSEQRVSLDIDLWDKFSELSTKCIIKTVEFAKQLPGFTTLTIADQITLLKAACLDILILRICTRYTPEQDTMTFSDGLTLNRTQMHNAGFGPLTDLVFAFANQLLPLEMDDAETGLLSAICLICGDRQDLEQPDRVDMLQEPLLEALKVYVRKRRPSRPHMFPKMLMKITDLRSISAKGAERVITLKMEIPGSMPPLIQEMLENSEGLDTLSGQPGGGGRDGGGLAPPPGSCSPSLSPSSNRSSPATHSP
Briefly: RAR binding, RARα. Conditions: Kd from IC50 by Cheng-Prussof equation. How it is done:
(§1) Non-specific binding was defined as that binding remaining in the presence of 500 nM of the appropriate unlabelled compound. At the end of the incubation period, bound from free ligand were separated. The amount of bound tritiated retinoids was determined by liquid scintillation counting of an aliquot (700 μL) of the supernatant fluid or the hydroxylapatite pellet.
(§2) After correcting for non-specific binding, IC50 values were determined. […] The IC50 value was determined graphically from a log-logit plot of the data. The Kd values were determined by application of the Cheng-Prussof equation to the IC50 values, the labeled ligand concentration and the Kd of the labeled ligand.

Test [1] deals with T2, RARβ (Homo sapiens, UniProt P10826).
T2 sequence (P10826 1-448 isoform P10826-2): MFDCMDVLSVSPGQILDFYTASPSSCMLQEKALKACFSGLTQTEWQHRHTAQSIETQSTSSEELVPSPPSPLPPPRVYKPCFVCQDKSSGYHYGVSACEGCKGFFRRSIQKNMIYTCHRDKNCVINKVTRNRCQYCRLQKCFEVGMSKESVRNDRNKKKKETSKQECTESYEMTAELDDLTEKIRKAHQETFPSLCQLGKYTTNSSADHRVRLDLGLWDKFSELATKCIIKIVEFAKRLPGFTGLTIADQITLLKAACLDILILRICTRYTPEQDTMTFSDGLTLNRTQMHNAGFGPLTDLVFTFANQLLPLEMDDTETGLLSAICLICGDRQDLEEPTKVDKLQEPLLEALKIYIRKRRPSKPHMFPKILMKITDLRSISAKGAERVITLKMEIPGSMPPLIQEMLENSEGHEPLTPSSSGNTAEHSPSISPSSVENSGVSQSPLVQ
Put plainly: RAR binding, RARβ. Conditions: Kd from IC50 by Cheng-Prussof equation. As to the method:
as §1, §2

For test [2], the target named is T2, RARβ. Put plainly: co-transfection assay, antagonist activity on RARβ. In kind it is cell-based. Set-up: expressed in transfected cells; host or cells: CV-1 cells (African green monkey kidney). To be noted: CV-1 cells, in presence of known RAR agonist TTNPB; for pIC50: read-out: IC50 antagonist potency, RARβ. The text has this:
This assay is described in further detail in U.S. Pat. Nos. 4,981,784 and 5,071,773, the disclosures of which are incorporated herein by reference.
In the co-transfection assay, a cloned cDNA for an IR (e.g., human RARα:, RARβ, RXRγ) under the control of a constitutive promoter (e.g., the SV 40 promoter) is introduced by transfection (a procedure to induce cells to take up foreign genes) into a background cell substantially devoid of endogenous IRs. This introduced gene directs the recipient cells to make the IR protein of interest. A second gene is also introduced (co-transfected) into the same cells in conjunction with the IR gene. This second gene, comprising the cDNA for a reporter protein, such as firefly luciferase (LUC), is controlled by an appropriate hormone responsive promoter containing a hormone response element (HRE). This reporter plasmid functions as a reporter for the transcription-modulating activity of the target IR. Thus, the reporter acts as a surrogate for the products (mRNA then protein) normally expressed by a gene under control of the target receptor and its native hormone.
The co-transfection assay can detect small molecule agonists or antagonists of target IRs. Exposing the transfected cells to an agonist ligand compound increases reporter activity in the transfected cells. This activity can be conveniently measured, e.g., by increasing luciferase production, which reflects compound-dependent, IR-mediated increases in reporter transcription. To detect antagonists, the co-transfection assay is carried out in the presence of a constant concentration of an agonist to the target IR (e.g., all-trans retinoic acid for RARα) known to induce a defined reporter signal. Increasing concentrations of a suspected antagonist will decrease the reporter signal (e.g., luciferase production). The co-transfection assay is therefore useful to detect both agonists and antagonists of specific IRs. Furthermore, it determines not only whether a compound interacts with a particular IR, but whether this interaction mimics (agonizes) or blocks (antagonizes) the effects of the native regulatory molecules on target gene expression, as well as the specificity and strength of this interaction.
CV-1 cells (African green monkey kidney fibroblasts) were cultured in the presence of Dulbecco's Modified Eagle Medium (DMEM) supplemented with 10% charcoal resin-stripped fetal bovine serum then transferred to 96-well microtiter plates one day prior to transfection.
To determine RAR and/or RXR agonist activity of the compounds of the present invention, the CV-1 cells were transiently transfected by calcium phosphate coprecipitation according to the procedure of Berger et al., 41 J. Steroid Biochem. Mol. Biol., 733 (1992) with the following receptor expressing plasmids: pRShRARα: Giguere et al., 330 Nature, 624 (1987); pRShRARβ and pRShRARγ, Ishikawa et al., 4 Mol. Endocrin., 837 (1990); pRShRXRα, Mangelsdorf et al., 345 Nature, 224 (1990); and pRSmRXRβ and pRSmRXRγ, Mangelsdorf et al., 6 Genes & Devel., 329 (1992), the disclosures of which are herein incorporated by reference. Each of these receptor expressing plasmids was co-transfected at a concentration of 5 ng/well, along with a basal reporter plasmid at 100 ng/well, the internal control plasmid pRS-β-Gal at 50 ng/well and filler DNA, pGEM at 45 ng/well.
The basal reporter plasmid D-MTV-LUC (Hollenberg and Evans, 55 Cell, 899 (1988), the disclosure of which is herein incorporated by reference) containing two copies of the TRE-palindromic response element described in Umesono et al., 336 Nature, 262 (1988), the disclosure of which is herein incorporated by reference, was used in transfections for the RARs, and the reporter plasmid CRBPIIFKLUC, which contains an RXRE (retinoid X receptor response element, as described in Mangelsdorf et al., 66 Cell, 555 (1991), the disclosure of which is herein incorporated by reference), was used in transfections for the RXRs.

Compound `CCCCOc1c(C(C)(C)C)cc(/C(C)=C/C=C/C(C)=C/C(=O)O)cc1C(C)(C)C` [Compound 7, 2E, 4E, 6E-[7-(3,5-Di-t-butyl-4-n-butoxyphenyl)-3-methyl]-octa-2,4,6-trienoic acid] had a pKd on RARα of 8.52. On RARβ [1], the pKd was 8.30. For the same compound, on RARβ [2], the “efficacy of antagonist, % of maximal inhibition, RARβ (in parentheses after IC50)” value was determined as 85% and the pIC50 was 8.40.
As for `CCCOc1c(C(C)(C)C)cc(/C(C)=C/C=C/C(C)=C/C(=O)O)cc1C(C)(C)C` [Compound 8, 2E, 4E, 6E-[7-(3,5-Di-t-butyl-4-n-propoxyphenyl)-3-methyl]-octa-2,4,6-trienoic acid], the pKd at RARα was 8.70. This compound gave a pKd on RARβ [1] of 9.00. Moreover, on RARβ [2], the “efficacy of antagonist, % of maximal inhibition, RARβ (in parentheses after IC50)” value turned out to be 85% and the pIC50 is 9.00.
Consider `CCCCCOc1c(C(C)(C)C)cc(/C(C)=C/C=C/C(C)=C/C(=O)O)cc1C(C)(C)C` [Compound 9, 2E, 4E, 6E-[7-(3,5-Di-t-butyl-4-n-pentoxyphenyl)-3-methyl]-octa-2,4,6-trienoic acid], for which the negative-log Kd (pKd) is 8.05 on RARα and 8.30 at RARβ [1]. Besides, the “efficacy of antagonist, % of maximal inhibition, RARβ (in parentheses after IC50)” value on RARβ [2] was found to be 86%. Further, the pIC50 at RARβ [2] is 7.77.
The like results for `C=C(c1ccccc1)c1cc(/C(C)=C/C=C/C(C)=C/C(=O)O)cc(C(C)(C)C)c1` [Compound 17, (2E,4E,6E)-7-[3-t-butyl-5-(1-phenyl-vinyl)-phenyl]-3-methyl-octa-2,4,6-trienoic acid] were, in that order, 8.70, 8.52, 90% and 8.30.
